Format in all cases: cell-based, human
For test [1], the system named is HCT116 (colorectal carcinoma, K Ras G13D) cells. Kind of test: Cell proliferation (Alamar Blue) assay, HCT116. The following applies: Homo sapiens, HCT-116, HCT116 cells. The gist of the method: (§1)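 Cells seeded at 5000/well and allowed 16-24 h at 37° C./5% CO2, then exposed to 3-fold serial dilutions (typically 0.0005 to 10 uM) for 72 h. Viability read by Alamar Blue (1×, 1-3 h) fluorescence at 540/590 nm; IC50 from variable-slope sigmoidal fit.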

For test [2], the system named is HT-29 (colorectal carcinoma, B-RafV600E) cells. Kind of test: Cell proliferation (Alamar Blue) assay, HT-29. Particulars: Homo sapiens, HT-29, HT29 cells. An outline of the steps:
as §1

Test [3] deals with phosphorylation of RSK1(S380) (the downstream target of ERK1/2). The experiment in a line: Phospho-RSK1(S380) ELISA assay in HT-29 cells. Particulars: Homo sapiens, HT-29, HT29 cells, read-out: Mechanistic Cell Assay RSK1 Phos HT29 IC50. The gist of the method: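 HT-29 colorectal carcinoma cells (B-RafV600E), plated overnight at 37° C./5% CO2, were treated with compound dilutions for 2 h. Lysates were analysed by phospho-RSK1(Ser380) sandwich ELISA with absorbance at 450 nm. IC50 came from a sigmoidal variable-slope dose-response fit.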

Like-named read-outs stand apart in the source and are kept apart here.

Take `COc1ccc(Nc2ncc(C)c(-n3ccc(C(=O)NC(CO)c4cccc(Cl)c4)c3)n2)cc1OCCCN(C)C` (stereo not drawn) [Example 184, N-(1-(3-chlorophenyl)-2-hydroxyethyl)-1-(2-((3-(3-(dimethylamino)propoxy)-4-methoxyphenyl)amino)-5-methylpyrimidin-4-yl)-1H-pyrrole-3-carboxamide]: the IC50 in test [1] was in the range of 250 to 500 nM; in test [2], 500 to 2500 nM; in test [3] (phospho-RSK1(S380)), 500 to 2500 nM.
For `Cc1cnc(Nc2ccc(F)cc2Cl)nc1-n1cnc(C(=O)NCc2cccc(Cl)c2CO)c1` [Example 329, N-(3-chloro-2-(hydroxymethyl)benzyl)-1-(2-((2-chloro-4-fluorophenyl)amino)-5-methylpyrimidin-4-yl)-1H-imidazole-4-carboxamide], the IC50 in test [1] was 250 to 500 nM; in test [2], no more than 100 nM; in test [3], no more than 100 nM.
For `Cc1cnc(Nc2ccc3c(c2)OC(F)(F)O3)nc1-n1ccc(C(=O)NC(CN)c2cccc(Cl)c2)c1` (stereo not drawn) [Cmpd 136, N-(2-amino-1-(3-chloro-phenyl)ethyl)-1-(2-((2,2-difluoro-benzo[d][1,3]dioxol-5-yl)amino)-5-methyl-pyrimidin-4-yl)-1H-pyrrole-3-carboxamide], the figures for the IC50 in test [1], in test [2] and in test [3] (phospho-RSK1(S380)) were 500 to 2500 nM, 500 to 2500 nM and greater than 2500 nM, respectively.
For the compound `Cc1cnc(NC2CCOCC2)nc1-n1cnc(C(=O)N[C@H](CNCC2CC2)c2cccc(Cl)c2)c1` [Example 339, 1-[5-Methyl-2-(tetrahydro-pyran-4-ylamino)-pyrimidin-4-yl]-1H-imidazole-4-carboxylic acid [(S)-1-(3-chloro-phenyl)-2-(cyclopropylmethyl-amino)-ethyl]-amide], the IC50 in test [1], in test [2] and in test [3] was no more than 100 nM throughout.
Turning to `Cc1cnc(NC2CCC(F)(F)CC2)nc1-n1cnc(C(=O)N[C@H](CN)c2cccc(Cl)c2)c1` [Example 286, (S)-N-(2-amino-1-(3-chlorophenyl)ethyl)-1-(2-((4,4-difluorocyclohexyl)amino)-5-methylpyrmidin-4-yl)-1H-imidazole-4-carboxamide], the IC50 in test [1], in test [2] and in test [3] (phospho-RSK1(S380)) was no more than 100 nM in each case.
Turning to `Cc1cnc(NC2CCOCC2)nc1-n1cnc(C(=O)NCc2nc(Cl)sc2C)c1` [Example 328, N-((2-chloro-5-methylthiazol-4-yl)methyl)-1-(5-methyl-2-((tetrahydro-2H-pyran-4-yl)amino)pyrimidin-4-yl)-1H-imidazole-4-carboxamide], the results for the IC50 in test [1], in test [2] and in test [3] were greater than 2500 nM, 250 to 500 nM and 250 to 500 nM, respectively.
In the case of `CN(C(=O)Nc1cnn(-c2ccnc(NC3CC3)n2)c1)[C@H](CO)c1ccccc1` [Example 18, (S)-3-(1-(2-(cyclopropyl-amino)pyrimidin-4-yl)-1H-pyrazol-4-yl)-1-(2-hydroxy-1-phenylethyl)-1-methylurea], the IC50 in test [1], in test [2] and in test [3] (phospho-RSK1(S380)) was greater than 2500 nM throughout.
As to `Cc1cnc(NC2CCOCC2)nc1-n1cnc(C(=O)NCc2cccc(Cl)c2F)c1` [Example 309, N-(3-chloro-2-fluorobenzyl)-1-(5-methyl-2-((tetrahydro-2H-pyran-4-yl)amino)pyrimidin-4-yl)-1H-imidazole-4-carboxamide], the IC50 in test [1] fell in the range of 500 to 2500 nM; in test [2], 250 to 500 nM; in test [3] it was 500 to 2500 nM.
Turning to `Cc1cnc(NC2CCOCC2)nc1-n1cnc(C(=O)NCc2cccc(CO)c2Cl)c1` [Example 335, N-(2-chloro-3-(hydroxymethyl)benzyl)-1-(5-methyl-2-((tetrahydro-2H-pyran-4-yl)amino)pyrimidin-4-yl)-1H-imidazole-4-carboxamide], the IC50 was greater than 2500 nM in test [1], 250 to 500 nM in test [2] and 100 to 250 nM in test [3].
